Data from patent publication US10246442B2, “4-Aminoquinazolin compounds as prolyl hydroxylase inhibitors” (JANSSEN PHARMACEUTICA NV, priority 2011, dated 2019).

Tests used:
PHD2181-417 = PHD2181-417 (Homo sapiens (Human), UniProt Q9GZT9); assay: PHD enzymatic assay ([14C]-succinic acid production); type: biochemical; details: purified PHD2181-417, HIF-1α peptide substrate, 30 min pre-incubation; average of results
Description: Expression and Purification of PHD2181-417
The human PHD2 expression construct containing amino acids 181-417 of GenBank Accession ID NM_022051 was cloned into a pBAD vector (Invitrogen), incorporating both an N-terminal histidine tag and a Smt3-tag, both of which are cleaved by Ulp1. Protein production was achieved by expression in BL21 cells grown in Terrific Broth containing 100 μg/ml ampicillin. Cell cultures were inoculated at 37° C. and grown to an OD600 of 0.8. Cultures were induced with 0.1% arabinose and grown overnight at 20° C. with continuous shaking at 225 rpm. Cells were then harvested by centrifugation and stored at −80° C. Cell pellets were suspended in Buffer A (50 mM Tris-HCl pH 7.2, 100 mM NaCl, 100 mM L-arginine, 1 mM TCEP, 0.05% (w/v) NP-40, 50 mM imidazole) followed by the addition of lysozyme and benzonase. Cells were lysed by sonication and the lysate was cleared by centrifugation (15,000 rpm, 90 min, 4° C.). The protein was purified by nickel affinity chromatography using a HisTrap Crude FF column (GE Healthcare). Samples were eluted in Buffer A with a 50-200 mM imidazole gradient. Cleavage of the Smt tag with Ulp1 protease was achieved via overnight incubation with dialyzing against Buffer A. The PHD2181-417 sample was then passed over a second HisTrap Crude FF column (GE Healthcare) to remove uncleaved protein. The flow-through was then dialyzed into 50 mM MES pH 6.0, 1 mM TCEP, 5 mM NaCl for ion exchange chromatography on a HiTrap SP Cation Exchange column (GE Healthcare). The PHD2181-417 protein was eluted with a 0-0.2 M NaCl gradient. Fractions were pooled for further purification by size exclusion chromatography over a Superdex 75 Size Exclusion Column (GE Healthcare). Final protein was concentrated to 4 mg/ml and dialyzed in 10 mM PIPES pH 7.0, 100 mM NaCl, 0.5 mM TCEP.
(10 μM, California Peptide Research Inc., Napa, Calif.), and [5-^14C]-2-oxoglutaric acid (50 mCi/mmol, Moravek Chemicals, Brea, Calif.) in reaction buffer (40 mM Tris-HCl, pH 7.5, 0.4 mg/ml catalase, 0.5 mM DTT, 1 mM ascorbate) for 10 minutes. Compounds were pre-incubated for 30 min before starting the reaction (all test compounds were dissolved at 10 mM in 100% DMSO (w/v) and were tested with final compound concentrations at 100 μM in 1% DMSO (w/v)). The reaction was stopped by addition of 50 μl of 70 mM H3PO4 and 50 μl of 500 mM NaH2PO4, pH 3.2. Detection of [^14C]-succinic acid was achieved by separating from [5-^14C]-2-oxoglutaric acid by incubating the reaction mixture with 100 μl of 0.16 M DNP prepared in 30% perchloric acid. Next, 50 μl of unlabeled 20 mM 2-oxoglutaric acid/20 mM succinic acid, serving as carrier for the radioactivity, was added to the mixture, and was allowed to proceed for 30 minutes at room temperature. The reaction was then incubated with 50 μl of 1 M 2-oxoglutaric acid for 30 additional minutes at room temperature to precipitate the excess DNP. The reaction was then centrifuged at 2800×g for 10 minutes at room temperature to separate [^14C]-succinic acid in the supernatant from the precipitated [^14C]-dinitrophenylhydrazone. Fractions of the supernatant (400 μI) were counted using a beta counter (Beckman Coulter, Fullerton, Calif.). Inhibition of PHD2181-417 activity was measured as a decrease in succinic acid production. The IC50 values were estimated by fitting the data to a three-parameter logistic function using GraphPad Prism, version 4.02 (Graph Pad Software, San Diego, Calif.).

[1] = test system: Erythropoietin secretion, Hep-3B cells; assay: Cellular assay: EPO secretion in Hep-3B cells; type: cell-based; details: Homo sapiens, Hep3B, 100 μM compound, 24 hours, percent of EPO secretion relative to assay control compound 7-[(4-Chloro-phenyl)-(5-methyl-isoxazol-3-ylamino)-methyl]-quinolin-8-ol, read-out: Cellular % EPO Stimulation
Description: Hep-3B cells (ATCC, Manassas, Va.) were plated in 96-well plates at 20,000 cells per well in 100 μl of DMEM containing 10% fetal bovine serum, 1% non-essential amino acids, 50 IU/mL of penicillin and 50 μg/mL of streptomycin (all cell culture reagents from Invitrogen, Carlsbad, Calif.). Twenty-four hours after plating, compounds were added and incubated for an additional 24 hours. All compounds were tested with final compound concentrations at 100 μM. Fifty microliters of the supernatant was then transferred to a human Hypoxia assay kit (Meso-Scale Discovery, Gaithersburg, Md.). Erythropoietin in the supernatant was detected according to the manufacturer's instructions as follows. EPO detection plates were blocked with 3% BSA in PBS overnight and 50 μl of the supernatant was incubated at room temperature in an orbital shaker for 2 h. Twenty-five microliters of 0.5 μg/ml anti-EPO detection antibody was added for 2 hours at room temperature in an orbital shaker. After 3 washes in PBS, 150 μl of 1× read buffer is added and the plate is then read on the MSD SECTOR instrument. Data was analyzed by determining the percent of EPO secretion in the presence of 100 μM compound relative to an assay control compound, 7-[(4-Chloro-phenyl)-(5-methyl-isoxazol-3-ylamino)-methyl]-quinolin-8-ol.

PHD2181-417, sequence (Q9GZT9 181-417): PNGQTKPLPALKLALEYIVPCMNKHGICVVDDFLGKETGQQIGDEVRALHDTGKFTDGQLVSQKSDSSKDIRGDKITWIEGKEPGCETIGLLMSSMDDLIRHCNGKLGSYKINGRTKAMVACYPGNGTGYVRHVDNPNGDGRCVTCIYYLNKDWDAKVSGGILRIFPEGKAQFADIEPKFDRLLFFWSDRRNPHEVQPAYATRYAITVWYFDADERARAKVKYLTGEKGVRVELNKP

Row | Enzyme pIC50 (PHD2181-417) | Compound | activation at 100 µM [1]
1 | 7.0 | CCN(CC)c1nc(-n2cc(C(=O)O)cn2)nc2ccc(C(C)C)cc12 [Example 186, 1-(4-(diethylamino)-6-isopropylquinazolin-2-yl)-1H-pyrazole-4-carboxylic acid] | 43%
2 | 7.2 | O=C(O)c1cnn(-c2nc(N3CCCC3)c3cc(Oc4ccccc4)ccc3n2)c1 [Example 73, 1-(6-Phenoxy-4-(pyrrolidin-1-yl)quinazolin-2-yl)-1H-pyrazole-4-carboxylic acid] | 36%
3 | 7.1 | CC(=O)NC1CCN(c2nc(-n3cc(C(=O)O)cn3)nc3ccc(Oc4ccc(Cl)cc4)cc23)CC1 [Example 70, 1-(4-(4-Acetamidopiperidin-1-yl)-6-(4-chlorophenoxy)quinazolin-2-yl)-1H-pyrazole-4-carboxylic acid] | 16%
4 | 6.5 | O=C(O)c1cnn(-c2nc(N3CCOCC3)c3cc(Cc4ccccc4)ccc3n2)c1 [Example 178, 1-(6-benzyl-4-morpholinoquinazolin-2-yl)-1H-pyrazole-4-carboxylic acid] | –
5 | 7.0 | O=C(O)c1cnn(-c2nc(NC3CC3)c3cc(OC4CCCCC4)c(Cl)cc3n2)c1 [Example 141, 1-(7-chloro-6-(cyclohexyloxy)-4-(cyclopropylamino)quinazolin-2-yl)-1H-pyrazole-4-carboxylic acid] | –
6 | 7.1 | O=C(O)c1cnn(-c2nc(N3CCCC3)c3cc(OC4CCCCC4)c(Cl)cc3n2)c1 [Example 139, 1-(7-chloro-6-(cyclohexyloxy)-4-(pyrrolidin-1-yl)quinazolin-2-yl)-1H-pyrazole-4-carboxylic acid] | –
7 | 7.1 | CN(C)c1nc(-n2cc(C(=O)O)cn2)nc2ccc(Cc3ccccc3)cc12 [Example 179, 1-(6-benzyl-4-(dimethylamino)quinazolin-2-yl)-1H-pyrazole-4-carboxylic acid] | –
8 | 7.1 | O=C(O)c1cnn(-c2nc(NC3CC3)c3cc(Cc4ccccc4)ccc3n2)c1 [Example 182, 1-(6-benzyl-4-(cyclopropylamino)quinazolin-2-yl)-1H-pyrazole-4-carboxylic acid] | –

The remaining lines, values behind:

Row | Compound | Enzyme pIC50 (PHD2181-417) | activation at 100 µM [1]
9 | CNc1nc(-n2cc(C(=O)O)cn2)nc2cc(F)c(Oc3c(C)cccc3C)cc12 [Example 2, 1-[6-(2,6-Dimethyl-phenoxy)-7-fluoro-4-methylamino-quinazolin-2-yl]-1H-pyrazole-4-carboxylic acid] | 7.2 | 10%
10 | CC(C)c1cc2c(N3CCOCC3)nc(-n3cc(C(=O)O)cn3)nc2cc1Cl [Example 160, 1-(7-chloro-6-isopropyl-4-morpholinoquinazolin-2-yl)-1H-pyrazole-4-carboxylic acid] | 6.8 | 28%
11 | Cc1cccc(C)c1CNc1nc(-n2cc(C(=O)O)cn2)nc2ccc(C3CCCCC3)cc12 [Example 23, 1-[6-Cyclohexyl-4-(2,6-dimethyl-benzylamino)-quinazolin-2-yl]-1H-pyrazole-4-carboxylic acid] | – | 7%
12 | O=C(O)c1cnn(-c2nc(NC3CC3)c3cc(C4CCCCC4)ccc3n2)c1 [Example 32, 1-(6-Cyclohexyl-4-(cyclopropylamino)quinazolin-2-yl)-1H-pyrazole-4-carboxylic acid] | 6.7 | 49%
13 | Cc1cccc(C)c1Oc1cc2c(NCC3CCCCC3)nc(-n3cc(C(=O)O)cn3)nc2cc1F [Example 13, 1-(4-((Cyclohexylmethyl)amino)-6-(2,6-dimethylphenoxy)-7-fluoroquinazolin-2-yl)-1H-pyrazole-4-carboxylic acid] | 6.9 | 10%
14 | O=C(O)c1cnn(-c2nc(N3CCCCC3)c3cc(C4CCCCC4)ccc3n2)c1 [Example 26, 1-(6-Cyclohexyl-4-(piperidin-1-yl)quinazolin-2-yl)-1H-pyrazole-4-carboxylic acid] | 7.1 | 20%
15 | CCN(C)c1nc(-n2cc(C(=O)O)cn2)nc2ccc(Cc3ccccc3)cc12 [Example 183, 1-(6-benzyl-4-(ethyl(methyl)amino)quinazolin-2-yl)-1H-pyrazole-4-carboxylic acid] | 7.2 | –
16 | Cc1cccc(C)c1Oc1cc2c(Nc3ccccc3Cl)nc(-n3cc(C(=O)O)cn3)nc2cc1F [Example 7, 1-[4-(2-Chloro-phenylamino)-6-(2,6-dimethyl-phenoxy)-7-fluoro-quinazolin-2-yl]-1H-pyrazole-4-carboxylic acid] | – | 13%
17 | Cc1cccc(C)c1Oc1cc2c(N(C)C)nc(-n3cc(C(=O)O)cn3)nc2cc1F [Example 3, 1-[4-Dimethylamino-6-(2,6-dimethyl-phenoxy)-7-fluoro-quinazolin-2-yl]-1H-pyrazole-4-carboxylic acid] | – | 68%
18 | CCN(CC)c1nc(-n2cc(C(=O)O)cn2)nc2ccc(Cc3ccccc3)cc12 [Example 180, 1-(6-benzyl-4-(diethylamino)quinazolin-2-yl)-1H-pyrazole-4-carboxylic acid] | 7.1 | –
19 | O=C(O)c1cnn(-c2nc(N3CCCC3)c3cc(OC4CCCCC4)ccc3n2)c1 [Example 175, 1-(6-(cyclohexyloxy)-4-(pyrrolidin-1-yl)quinazolin-2-yl)-1H-pyrazole-4-carboxylic acid] | – | 46%
20 | Cc1cccc(C)c1Oc1cc2c(N)nc(-n3cc(C(=O)O)cn3)nc2cc1F [Example 1, 1-[4-Amino-6-(2,6-dimethyl-phenoxy)-7-fluoro-quinazolin-2-yl]-1H-pyrazole-4-carboxylic acid] | – | 51%
21 | CCN(CC)c1nc(-n2cc(C(=O)O)cn2)nc2cc(Cl)c(OC3CCCCC3)cc12 [Example 138, 1-(7-chloro-6-(cyclohexyloxy)-4-(diethylamino)quinazolin-2-yl)-1H-pyrazole-4-carboxylic acid] | 7.5 | –
22 | Cc1cccc(C)c1Oc1cc2c(NCC3CC3)nc(-n3cc(C(=O)O)cn3)nc2cc1F [Example 15, 1-((4-Cyclopropanemethylamino)-6-(2,6-dimethylphenoxy)-7-fluoroquinazolin-2-yl)-1H-pyrazole-4-carboxylic acid] | – | 64%
23 | CCN(CC)c1nc(-n2cc(C(=O)O)cn2)nc2ccc(OC3CCCCC3)cc12 [Example 174, 1-(6-(cyclohexyloxy)-4-(diethylamino)quinazolin-2-yl)-1H-pyrazole-4-carboxylic acid] | – | 35%
24 | O=C(O)c1cnn(-c2nc(N3CCCC3)c3cc(Cc4ccccc4)ccc3n2)c1 [Example 181, 1-(6-benzyl-4-(pyrrolidin-1-yl)quinazolin-2-yl)-1H-pyrazole-4-carboxylic acid] | 7.1 | –
